Where two headings read alike, the source gives them in different places. *1 amine or outer side, *2 acyl side, *3 side chain or, on linkers, in order; H or OH if unused. Where a SMILES comes first, the peptide text is derived from it. Side-chain parts run from the residue outwards. [ ]: non-standard residue; d: D form. The star is where a group is joined. C18 diacid = O=C(O)CCCCCCCCCCCCCCCCC(=O)*; γGlu = O=C(O)[C@H](CCC(=O)[*:2])N[*:1]; Dap = NC[C@H](N)C(=O)O; AEEA = NCCOCCOCC(=O)O; Aib = CC(C)(N)C(=O)O
How the values were obtained:
human GIP R = molecular target: T1, human GIP R (Homo sapiens, UniProt P48546); assay: Human GIP receptor (GIP R) activity assay, cAMP induction (AlphaScreen) in HEK293 cells; type: cell-based; conditions: read-out: hGIP-R cAMP EC50 average value
T1 construct: expressed in transfected cells
T1 sequence (P48546 22-466): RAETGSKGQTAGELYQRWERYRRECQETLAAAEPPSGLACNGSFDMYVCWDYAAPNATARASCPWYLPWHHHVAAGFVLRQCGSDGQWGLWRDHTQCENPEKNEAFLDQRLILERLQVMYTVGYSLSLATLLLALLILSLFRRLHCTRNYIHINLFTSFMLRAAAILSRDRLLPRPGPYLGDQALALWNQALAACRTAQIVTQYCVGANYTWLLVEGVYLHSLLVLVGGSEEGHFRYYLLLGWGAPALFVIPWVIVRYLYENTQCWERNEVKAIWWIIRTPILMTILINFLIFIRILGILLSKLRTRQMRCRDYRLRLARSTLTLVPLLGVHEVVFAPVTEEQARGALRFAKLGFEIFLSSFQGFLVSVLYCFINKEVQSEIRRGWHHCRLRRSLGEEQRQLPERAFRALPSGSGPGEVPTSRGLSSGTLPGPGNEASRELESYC
Procedure: (§1) Human GIP Receptor (GIP R) and GLP-1 Receptor (GLP-1 R) Activity Assay
(§2) In vitro effects of peptide conjugates of the invention were assessed by measuring the induction of cAMP following stimulation of the respective receptor by GIP, GLP1 or analogues of these, as outlined in the invention, using the AlphaSceen® cAMP kit from Perkin-Elmer according to instructions. Briefly, HEK293 cells expressing the human GIP R or GLP-1 R (stable cell lines generated through transfection of the cDNA for human GIP R or GLP-1 and selection of stable clones) were seeded at 30,000 cells/well in 96-well microtiter plates coated with 0.01% poly-L-lysine, and grown for 1 day in culture in 200 μl growth medium (DMEM, 10% FCS, Penicillin (100 IU/ml), Streptomycin (100 μg/ml)). On the day of analysis, growth medium was removed and the cells were washed once with […] Tyrode's buffer (Tyrode's Salts (9.6 g/l), 10 mM HEPES, pH 7.4). […] The Assay buffer was removed and cells are lysed in 80 μl Lysis buffer (0.1% w/v BSA, 5 mM HEPES, 0.3% v/v Tween-20) per well. From each well 10 μl lysed cells was transferred to a 384-well plate and mixed with 15 μl bead-mix (1 Unit/15 μl anti-cAMP Acceptor Beads, 1 Unit/15 μl Donor Beads, and 1 Unit/15 μl Biotinylated cAMP in Assay Buffer). The plates were mixed and incubated in the dark for an hour at room temperature before measuring using an Envision™ plate reader (Perkin-Elmer).
(§3) The resulting cAMP curves were plotted as absolute cAMP concentrations (nM) over log (test compound concentration) and analyzed using the curve fitting program XLfit.
(§4) Parameters calculated to describe both the potency as well as the agonistic activity of each test compound on the receptors were:
(§5) EC50, a concentration resulting in a half-maximal elevation of cAMP levels, reflecting the potency of the test compound.

human GLP-1 R = molecular target: T2, human GLP-1 R (Homo sapiens, UniProt P43220); assay: Human GLP-1 receptor (GLP-1 R) activity assay, cAMP induction (AlphaScreen) in HEK293 cells; type: cell-based; conditions: read-out: hGLP1-R cAMP EC50 average value
T2 construct: expressed in transfected cells
T2 sequence (P43220 24-463): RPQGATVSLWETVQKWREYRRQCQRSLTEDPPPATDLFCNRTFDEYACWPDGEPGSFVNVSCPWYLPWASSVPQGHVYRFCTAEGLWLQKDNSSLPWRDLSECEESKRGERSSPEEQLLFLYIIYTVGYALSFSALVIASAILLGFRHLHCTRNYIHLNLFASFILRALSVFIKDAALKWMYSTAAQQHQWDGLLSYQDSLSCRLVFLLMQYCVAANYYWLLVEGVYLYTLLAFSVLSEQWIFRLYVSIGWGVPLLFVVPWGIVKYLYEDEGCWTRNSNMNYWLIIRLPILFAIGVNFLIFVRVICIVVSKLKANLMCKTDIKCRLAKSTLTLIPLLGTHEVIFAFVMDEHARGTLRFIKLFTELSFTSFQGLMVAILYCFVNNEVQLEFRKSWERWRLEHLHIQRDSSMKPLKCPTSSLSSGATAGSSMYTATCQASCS
Procedure: as §1, §2, §3, §4, §5

[1] = Table 2, HEK293 cells expressing human GIP R
[2] = Table 2a, secondary assay study
[3] = Table 2, HEK293 cells expressing human GLP-1 R
[4] = Table 3, most comprehensive data

Structure (SMILES) | EC50 (human GIP R; [1]) [pM] | EC50 (human GIP R; [2]) [pM] | EC50 (human GLP-1 R; [3]) [pM] | EC50 (human GLP-1 R; [2]) [pM] | EC50 (human GIP R; [4]) [pM]
CC[C@H](C)[C@H](NC(=O)[C@H](CO)NC(=O)[C@H](Cc1ccc(O)cc1)NC(=O)[C@H](CC(=O)O)NC(=O)[C@H](CO)NC(=O)[C@@H](NC(=O)[C@H](Cc1ccccc1)NC(=O)[C@@H](NC(=O)CNC(=O)[C@H](CCC(=O)O)NC(=O)C(C)(C)NC(=O)[C@@H](N)Cc1ccc(O)cc1)[C@@H](C)O)[C@@H](C)O)C(=O)N[C@@H](Cc1ccc(O)cc1)C(=O)N[C@@H](CC(C)C)C(=O)N[C@@H](CC(=O)O)C(=O)N[C@@H](CCCCN)C(=O)N[C@@H](CCCCNC(=O)COCCOCCNC(=O)COCCOCCNC(=O)CCCCCCCCCCCCCCCCC(=O)O)C(=O)N[C@@H](C)C(=O)N[C@@H](CCC(N)=O)C(=O)N[C@@H](CCCNC(=N)N)C(=O)N[C@@H](C)C(=O)N[C@@H](Cc1ccccc1)C(=O)N[C@H](C(=O)N[C@@H](CCC(=O)O)C(=O)N[C@@H](Cc1c[nH]c2ccccc12)C(=O)N[C@@H](CC(C)C)C(=O)N[C@@H](CC(C)C)C(=O)N[C@@H](C)C(=O)N[C@@H](CCC(N)=O)C(=O)NCC(=O)N1CCC[C@H]1C(=O)N[C@@H](CO)C(=O)N[C@@H](CO)C(=O)NCC(=O)N[C@@H](C)C(=O)N1CCC[C@H]1C(=O)N1CCC[C@H]1C(=O)N1CCC[C@H]1C(=O)N[C@@H](CO)C(N)=O)C(C)C [Compound 5] (H-Y[Aib]EGTFTSDYSIYLDKK([AEEA-AEEA-C18 diacid])AQRAFVEWLLAQGPSSGAPPPS-NH2) | 12 | 11 | 14 | 14 | –
CC[C@H](C)[C@H](NC(=O)[C@H](CO)NC(=O)[C@H](Cc1ccc(O)cc1)NC(=O)[C@H](CC(=O)O)NC(=O)[C@H](CO)NC(=O)[C@@H](NC(=O)[C@H](Cc1ccccc1)NC(=O)[C@@H](NC(=O)CNC(=O)[C@H](CCC(=O)O)NC(=O)C(C)(C)NC(=O)[C@@H](N)Cc1ccc(O)cc1)[C@@H](C)O)[C@@H](C)O)C(=O)N[C@@H](Cc1ccc(O)cc1)C(=O)N[C@@H](CC(C)C)C(=O)N[C@@H](CC(=O)O)C(=O)N[C@@H](CCCCN)C(=O)N[C@@H](CCCCNC(=O)COCCOCCNC(=O)COCCOCCNC(=O)COCCOCCNC(=O)CC[C@H](NC(=O)CCCCCCCCCCCCCCCCC(=O)O)C(=O)O)C(=O)N[C@@H](C)C(=O)N[C@@H](CCC(N)=O)C(=O)N[C@@H](CCCNC(=N)N)C(=O)N[C@@H](C)C(=O)N[C@@H](Cc1ccccc1)C(=O)N[C@H](C(=O)N[C@@H](CCC(=O)O)C(=O)N[C@@H](Cc1c[nH]c2ccccc12)C(=O)N[C@@H](CC(C)C)C(=O)N[C@@H](CC(C)C)C(=O)N[C@@H](C)C(=O)N[C@@H](CCC(N)=O)C(=O)NCC(=O)N1CCC[C@H]1C(=O)N[C@@H](CO)C(=O)N[C@@H](CO)C(=O)NCC(=O)N[C@@H](C)C(=O)N1CCC[C@H]1C(=O)N1CCC[C@H]1C(=O)N1CCC[C@H]1C(=O)N[C@@H](CO)C(N)=O)C(C)C [Compound 6] | 4.9 | 5 | 16 | – | 5
CC[C@H](C)[C@H](NC(=O)[C@H](CO)NC(=O)[C@H](Cc1ccc(O)cc1)NC(=O)[C@H](CC(=O)O)NC(=O)[C@H](CO)NC(=O)[C@@H](NC(=O)[C@H](Cc1ccccc1)NC(=O)[C@@H](NC(=O)CNC(=O)[C@H](CCC(=O)O)NC(=O)C(C)(C)NC(=O)[C@@H](N)Cc1ccc(O)cc1)[C@@H](C)O)[C@@H](C)O)C(=O)N[C@@H](Cc1ccc(O)cc1)C(=O)N[C@@H](CC(C)C)C(=O)N[C@@H](CC(=O)O)C(=O)N[C@@H](CCCCN)C(=O)N[C@@H](CCCCNC(=O)COCCOCCNC(=O)COCCOCCNC(=O)[C@H](CN)NC(=O)CCCCCCCCCCCCCCCCC(=O)O)C(=O)N[C@@H](C)C(=O)N[C@@H](CCC(N)=O)C(=O)N[C@@H](CCCNC(=N)N)C(=O)N[C@@H](C)C(=O)N[C@@H](Cc1ccccc1)C(=O)N[C@H](C(=O)N[C@@H](CCC(=O)O)C(=O)N[C@@H](Cc1c[nH]c2ccccc12)C(=O)N[C@@H](CC(C)C)C(=O)N[C@@H](CC(C)C)C(=O)N[C@@H](C)C(=O)N[C@@H](CCC(N)=O)C(=O)NCC(=O)N1CCC[C@H]1C(=O)N[C@@H](CO)C(=O)N[C@@H](CO)C(=O)NCC(=O)N[C@@H](C)C(=O)N1CCC[C@H]1C(=O)N1CCC[C@H]1C(=O)N1CCC[C@H]1C(=O)N[C@@H](CO)C(N)=O)C(C)C [Compound 7] (H-Y[Aib]EGTFTSDYSIYLDKK([AEEA-AEEA-Dap-C18 diacid])AQRAFVEWLLAQGPSSGAPPPS-NH2) | 11 | – | 12 | – | –
CC[C@H](C)[C@H](NC(=O)[C@H](CO)NC(=O)[C@H](Cc1ccc(O)cc1)NC(=O)[C@H](CC(=O)O)NC(=O)[C@H](CO)NC(=O)[C@@H](NC(=O)[C@H](Cc1ccccc1)NC(=O)[C@@H](NC(=O)CNC(=O)[C@H](CCC(=O)O)NC(=O)[C@@H](C)NC(=O)[C@@H](N)Cc1ccc(O)cc1)[C@@H](C)O)[C@@H](C)O)C(=O)N[C@@H](Cc1ccc(O)cc1)C(=O)N[C@@H](CC(C)C)C(=O)N[C@@H](CC(=O)O)C(=O)N[C@@H](CCCCN)C(=O)N[C@@H](CCCCNC(=O)COCCOCCNC(=O)COCCOCCNC(=O)CC[C@H](NC(=O)CCCCCCCCCCCCCCCCC(=O)O)C(=O)O)C(=O)N[C@@H](C)C(=O)N[C@@H](CCC(N)=O)C(=O)N[C@@H](CCCNC(=N)N)C(=O)N[C@@H](C)C(=O)N[C@@H](Cc1ccccc1)C(=O)N[C@H](C(=O)N[C@@H](CCC(=O)O)C(=O)N[C@@H](Cc1c[nH]c2ccccc12)C(=O)N[C@@H](CC(C)C)C(=O)N[C@@H](CC(C)C)C(=O)N[C@@H](C)C(=O)N[C@@H](CCC(N)=O)C(=O)NCC(=O)N1CCC[C@H]1C(=O)N[C@@H](CO)C(=O)N[C@@H](CO)C(=O)NCC(=O)N[C@@H](C)C(=O)N1CCC[C@H]1C(=O)N1CCC[C@H]1C(=O)N1CCC[C@H]1C(=O)N[C@@H](CO)C(N)=O)C(C)C [Compound 9] (H-Y[dA]EGTFTSDYSIYLDKK([AEEA-AEEA-γGlu-C18 diacid])AQRAFVEWLLAQGPSSGAPPPS-NH2) | 8.8 | 9 | 38 | 39 | 9
CC[C@H](C)[C@H](NC(=O)[C@H](CO)NC(=O)[C@H](Cc1ccc(O)cc1)NC(=O)[C@H](CC(=O)O)NC(=O)[C@H](CO)NC(=O)[C@@H](NC(=O)[C@H](Cc1ccccc1)NC(=O)[C@@H](NC(=O)CNC(=O)[C@H](CCC(=O)O)NC(=O)C(C)(C)NC(=O)[C@@H](N)Cc1ccc(O)cc1)[C@@H](C)O)[C@@H](C)O)C(=O)N[C@@H](Cc1ccc(O)cc1)C(=O)N[C@@H](CC(C)C)C(=O)N[C@@H](CCC(=O)O)C(=O)N[C@@H](CCCCN)C(=O)N[C@@H](CCCCNC(=O)COCCOCCNC(=O)COCCOCCNC(=O)CC[C@H](NC(=O)CCCCCCCCCCCCCCCCC(=O)O)C(=O)O)C(=O)N[C@@H](C)C(=O)N[C@@H](C)C(=O)N[C@@H](CCCCN)C(=O)N[C@@H](CCC(=O)O)C(=O)N[C@@H](Cc1ccccc1)C(=O)N[C@H](C(=O)N[C@@H](CCC(=O)O)C(=O)N[C@@H](Cc1c[nH]c2ccccc12)C(=O)N[C@@H](CC(C)C)C(=O)N[C@@H](CC(C)C)C(=O)N[C@@H](CO)C(=O)N[C@@H](C)C(=O)NCC(=O)N1CCC[C@H]1C(=O)N[C@@H](CO)C(=O)N[C@@H](CO)C(=O)NCC(=O)N[C@@H](C)C(=O)N1CCC[C@H]1C(=O)N1CCC[C@H]1C(=O)N1CCC[C@H]1C(=O)N[C@@H](CO)C(N)=O)C(C)C [Compound 10] (H-Y[Aib]EGTFTSDYSIYLEKK([AEEA-AEEA-γGlu-C18 diacid])AAKEFVEWLLSAGPSSGAPPPS-NH2) | 16 | 16 | 28 | 29 | –

Source: US10093713B2, “GIP-GLP-1 dual agonist compounds and methods” (priority 2013, dated 2018)
